Measurements from PubChem BioAssay (NCI).
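The compound was tested at five concentrations on cells cultured in 96-well plates, with a 48-hour exposure period. GI50 marks 50% less growth. TGI denotes the concentration required for complete inhibition of growth.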

What was measured:
Experiment in all cases: inhibition of tumour cell growth, NCI panel, 48 h
OVCAR-5 ovarian = system: OVCAR-5 ovarian
786-0 renal = system: 786-0 renal
A498 renal = system: A498 renal
ACHN renal = system: ACHN renal
BT-549 breast = system: BT-549 breast
COLO 205 colon = system: COLO 205 colon
DU-145 prostate = system: DU-145 prostate
EKVX NSCLC = system: EKVX NSCLC
HCC-2998 colon = system: HCC-2998 colon
HCT-116 colon = system: HCT-116 colon
HCT-15 colon = system: HCT-15 colon
HOP-62 NSCLC = system: HOP-62 NSCLC
HOP-92 NSCLC = system: HOP-92 NSCLC
HS 578T breast = system: HS 578T breast
HT29 colon = system: HT29 colon
IGROV1 ovarian = system: IGROV1 ovarian
KM12 colon = system: KM12 colon
LOX IMVI melanoma = system: LOX IMVI melanoma
M14 melanoma = system: M14 melanoma
MCF7 breast = system: MCF7 breast
MDA-MB-231 breast = system: MDA-MB-231 breast
MOLT-4 leukemia = system: MOLT-4 leukemia
NCI-H226 lung = system: NCI-H226 lung
NCI-H23 lung = system: NCI-H23 lung
NCI-H522 lung = system: NCI-H522 lung
NCI/ADR-RES ovarian = system: NCI/ADR-RES ovarian
OVCAR-3 ovarian = system: OVCAR-3 ovarian
OVCAR-8 ovarian = system: OVCAR-8 ovarian
PC-3 prostate = system: PC-3 prostate
RPMI-8226 leukemia = system: RPMI-8226 leukemia
RXF 393 renal = system: RXF 393 renal
SF-268 CNS = system: SF-268 CNS
SF-295 CNS = system: SF-295 CNS
SF-539 CNS = system: SF-539 CNS
SK-MEL-2 melanoma = system: SK-MEL-2 melanoma
SK-MEL-28 melanoma = system: SK-MEL-28 melanoma
SK-MEL-5 melanoma = system: SK-MEL-5 melanoma
SK-OV-3 ovarian = system: SK-OV-3 ovarian
SN12C renal = system: SN12C renal
SNB-19 CNS = system: SNB-19 CNS
SNB-75 CNS = system: SNB-75 CNS
T-47D breast = system: T-47D breast
TK-10 renal = system: TK-10 renal
U251 CNS = system: U251 CNS
UACC-257 melanoma = system: UACC-257 melanoma
UACC-62 melanoma = system: UACC-62 melanoma
UO-31 renal = system: UO-31 renal
A549 NSCLC = system: A549 NSCLC
CAKI-1 renal = system: CAKI-1 renal
CCRF-CEM leukemia = system: CCRF-CEM leukemia
HL-60(TB) leukemia = system: HL-60(TB) leukemia
K-562 leukemia = system: K-562 leukemia
MALME-3M melanoma = system: MALME-3M melanoma
MDA-MB-435 = system: MDA-MB-435
NCI-H460 lung = system: NCI-H460 lung
OVCAR-4 ovarian = system: OVCAR-4 ovarian
SW-620 colon = system: SW-620 colon

## C#CC[C@@H]1C[C@]2(C)[C@H]3CC[C@@H]4[C@H]5C(C(=C)C)CC[C@]5(C(=O)NCCCN5CCN(CCCN)CC5)CC[C@@]4(C)[C@]3(C)CC[C@H]2C(C)(C)[C@H]1OC(C)=O (some centres not stated)
OVCAR-5 ovarian
  GI50: 1.58 µM
  TGI: 2.95 µM

## O=C(CSc1nc2c(n1Nc1ccccc1)-c1ccccc1SC2)Nc1nc(-c2ccc(Cl)cc2)cs1
786-0 renal
  GI50: 12.7 µM
  TGI: 34.8 µM
A498 renal
  GI50: 6.44 µM
  TGI: 32.8 µM
ACHN renal
  GI50: 35.4 µM
  TGI: > 100 µM
BT-549 breast
  GI50: 33.5 µM
  TGI: > 100 µM
COLO 205 colon
  GI50: 4.1 µM
  TGI: > 100 µM
DU-145 prostate
  GI50: > 100 µM
  TGI: > 100 µM
EKVX NSCLC
  GI50: 23.6 µM
  TGI: > 100 µM
HCC-2998 colon
  GI50: > 100 µM
  TGI: > 100 µM
HCT-116 colon
  GI50: 6.37 µM
  TGI: > 100 µM
HCT-15 colon
  GI50: > 100 µM
  TGI: > 100 µM
HOP-62 NSCLC
  GI50: 14 µM
  TGI: 34 µM
HOP-92 NSCLC
  GI50: 11.6 µM
  TGI: 71 µM
HS 578T breast
  GI50: 6.35 µM
  TGI: 78.7 µM
HT29 colon
  GI50: > 100 µM
  TGI: > 100 µM
IGROV1 ovarian
  GI50: 12.5 µM
  TGI: 78.2 µM
KM12 colon
  GI50: > 100 µM
  TGI: > 100 µM
LOX IMVI melanoma
  GI50: > 100 µM
  TGI: > 100 µM
M14 melanoma
  GI50: > 100 µM
  TGI: > 100 µM
MCF7 breast
  GI50: > 100 µM
  TGI: > 100 µM
MDA-MB-231 breast
  GI50: 33.3 µM
  TGI: > 100 µM
MOLT-4 leukemia
  GI50: > 100 µM
  TGI: > 100 µM
NCI-H226 lung
  GI50: 29.9 µM
  TGI: > 100 µM
NCI-H23 lung
  GI50: 6.48 µM
  TGI: 97.1 µM
NCI-H522 lung
  GI50: 5.73 µM
  TGI: > 100 µM
NCI/ADR-RES ovarian
  GI50: 25.5 µM
  TGI: > 100 µM
OVCAR-3 ovarian
  GI50: 7.34 µM
  TGI: > 100 µM
OVCAR-5 ovarian
  GI50: > 100 µM
  TGI: > 100 µM
OVCAR-8 ovarian
  GI50: 6.42 µM
  TGI: > 100 µM
PC-3 prostate
  GI50: > 100 µM
  TGI: > 100 µM
RPMI-8226 leukemia
  GI50: > 100 µM
  TGI: > 100 µM
RXF 393 renal
  GI50: 15.8 µM
  TGI: 43.4 µM
SF-268 CNS
  GI50: 10.8 µM
  TGI: > 100 µM
SF-295 CNS
  GI50: 11.3 µM
  TGI: 33.5 µM
SF-539 CNS
  GI50: 25.8 µM
  TGI: > 100 µM
SK-MEL-2 melanoma
  GI50: 37.2 µM
  TGI: > 100 µM
SK-MEL-28 melanoma
  GI50: > 100 µM
  TGI: > 100 µM
SK-MEL-5 melanoma
  GI50: > 100 µM
  TGI: > 100 µM
SK-OV-3 ovarian
  GI50: 11.8 µM
  TGI: 29.5 µM
SN12C renal
  GI50: > 100 µM
  TGI: > 100 µM
SNB-19 CNS
  GI50: 15.3 µM
  TGI: 63.5 µM
SNB-75 CNS
  GI50: 9.23 µM
  TGI: 23.8 µM
T-47D breast
  GI50: 26.6 µM
  TGI: > 100 µM
TK-10 renal
  GI50: 22.9 µM
  TGI: 58.9 µM
U251 CNS
  GI50: 9.91 µM
  TGI: 88.2 µM
UACC-257 melanoma
  GI50: > 100 µM
  TGI: > 100 µM
UACC-62 melanoma
  GI50: 13.5 µM
  TGI: > 100 µM
UO-31 renal
  GI50: > 100 µM
  TGI: > 100 µM

## O=C(CSCC(=O)N/N=C/c1ccc2c(c1)OCO2)N/N=C/c1ccc2c(c1)OCO2
786-0 renal
  TGI: > 100 µM
A498 renal
  TGI: > 100 µM
A549 NSCLC
  TGI: > 100 µM
ACHN renal
  TGI: > 100 µM
BT-549 breast
  TGI: > 100 µM
CAKI-1 renal
  TGI: > 100 µM
CCRF-CEM leukemia
  TGI: > 100 µM
DU-145 prostate
  TGI: > 100 µM
EKVX NSCLC
  TGI: > 100 µM
HCC-2998 colon
  TGI: > 100 µM
HCT-116 colon
  TGI: > 100 µM
HCT-15 colon
  TGI: > 100 µM
HL-60(TB) leukemia
  TGI: > 100 µM
HOP-62 NSCLC
  TGI: > 100 µM
HOP-92 NSCLC
  TGI: > 100 µM
HS 578T breast
  TGI: > 100 µM
HT29 colon
  TGI: > 100 µM
IGROV1 ovarian
  TGI: > 100 µM
K-562 leukemia
  TGI: > 100 µM
KM12 colon
  TGI: > 100 µM
LOX IMVI melanoma
  TGI: > 100 µM
M14 melanoma
  TGI: > 100 µM
MALME-3M melanoma
  TGI: > 100 µM
MCF7 breast
  TGI: > 100 µM
MDA-MB-231 breast
  TGI: > 100 µM
MDA-MB-435
  TGI: > 100 µM
MOLT-4 leukemia
  TGI: 56.8 µM
NCI-H226 lung
  TGI: > 100 µM
NCI-H23 lung
  TGI: > 100 µM
NCI-H460 lung
  TGI: > 100 µM
NCI-H522 lung
  TGI: > 100 µM
NCI/ADR-RES ovarian
  TGI: > 100 µM
OVCAR-3 ovarian
  TGI: > 100 µM
OVCAR-4 ovarian
  TGI: > 100 µM
OVCAR-5 ovarian
  TGI: > 100 µM
OVCAR-8 ovarian
  TGI: > 100 µM
PC-3 prostate
  TGI: > 100 µM
RPMI-8226 leukemia
  TGI: > 100 µM
RXF 393 renal
  TGI: > 100 µM
SF-268 CNS
  TGI: > 100 µM
SF-295 CNS
  TGI: > 100 µM
SF-539 CNS
  TGI: > 100 µM
SK-MEL-2 melanoma
  TGI: > 100 µM
SK-MEL-28 melanoma
  TGI: > 100 µM
SK-MEL-5 melanoma
  TGI: > 100 µM
SK-OV-3 ovarian
  TGI: > 100 µM
SN12C renal
  TGI: > 100 µM
SNB-19 CNS
  TGI: > 100 µM
SNB-75 CNS
  TGI: > 100 µM
SW-620 colon
  TGI: > 100 µM
T-47D breast
  TGI: > 100 µM
TK-10 renal
  TGI: > 100 µM
U251 CNS
  TGI: > 100 µM
UACC-257 melanoma
  TGI: > 100 µM
UACC-62 melanoma
  TGI: > 100 µM
UO-31 renal
  TGI: > 100 µM
